Assay results: patent US11261201B2 (priority 2018, dated 2022)
Values after ≈ are worked out from the molar mass of the structure shown. Where a name gives a salt, the structure may show the parent alone. Read-outs that look alike come from different tables or passages of the source.

Legend:
H37RvMA = assay: Tuberculosis Alamar Blue/Resazurin assay (MIC); assay type: cell-based; conditions: Mycobacterium tuberculosis, H37RV, read-out: WT H37Rv MTB Activity
A. baumannii = assay: Gram negative MIC protocol (OD600, LB, 24 h); conditions: Acinetobacter baumannii
Procedure: (§1) Overnight bacterial cultures were grown in LB with no added antibiotics at 37° C. with shaking. A 1:1000 dilution of these cultures into LB was exposed to concentration gradients of compounds in 96-well plates (100 μL per well assay volume). Resulting plates were incubated at 37° C. for 24 h without shaking, and OD600 was measured at the end of the incubation. MICs were determined as the lowest concentrations at which OD600 remained at baseline.

E. coli = assay: Gram negative MIC protocol (OD600, LB, 24 h); conditions: Escherichia coli
Procedure: as §1

[1] = read-out: MIC A. baumannii LB Media, A. baumannii, LB media, 24 h, OD600
[2] = read-out: MIC E. coli delta-TolC LB Media, E. coli delta-TolC, LB media, OD600
[3] = read-out: MIC WT E. coli LB Media, WT E. coli, LB media, OD600

SMILES | MIC (H37RvMA; WT H37Rv MTB) [µM] | MIC (A. baumannii; [1]) [µM] | MIC (E. coli; [2]) [µM] | MIC (E. coli; [3]) [µM] | MIC (H37RvMA) [µM] | MIC (A. baumannii; read-out: MIC A. baumannii LB Media) [µM]
CC(CC1CCCCC1)N1Cc2ccccc2CC1=O (centres unmarked) [B412, 2-(1-cyclohexylpropan-2-yl)-1,4-dihydroisoquinolin-3(2H)-one] | 7.4 (≈ 2.01 µg/mL) | > 150 | 55 (≈ 14.9 µg/mL) | > 150 |  | 
CC(CN1Cc2ccccc2CC1=O)C1CCCCC1 (centres unmarked) [B413, 2-(2-cyclohexylpropyl)-1,4-dihydroisoquinolin-3(2H)-one] | 7.4 (≈ 2.01 µg/mL) | > 150 | 55 (≈ 14.9 µg/mL) | > 150 |  | 
CC(CC1CCCCC1)NCc1ccccc1CS(N)(=O)=O (centres unmarked) [B414, (2-(((1-cyclohexylpropan-2-yl)amino)methyl)phenyl)methanesulfonamide] | > 150 | 150 (≈ 48.7 µg/mL) | 4 (≈ 1.3 µg/mL) | 20 (≈ 6.49 µg/mL) |  | 
CC1CCCCC1CCN1Cc2ccccc2CC1=O (centres unmarked) [B415, 2-(2-(2-methylcyclohexyl)ethyl)-1,4-dihydroisoquinolin-3(2H)-one] | 1.26 (≈ 0.341 µg/mL) | > 150 | 55 (≈ 14.9 µg/mL) | > 150 |  | 
O=C1Cc2ccccc2CN1CCCC1CCCCC1 [B416, 2-(3-cyclohexylpropyl)-1,4-dihydroisoquinolin-3(2H)-one] | 2.5 (≈ 0.679 µg/mL) | > 150 | 55 (≈ 14.9 µg/mL) | > 150 |  | 
c1ccc2c(c1)CCN(CCC1CCCCC1)C2 [B417, 2-(2-cyclohexylethyl)-1,2,3,4-tetrahydroisoquinoline] |  |  | > 150 | > 150 | > 150 | > 150
O=C1Cc2ccccc2CN1C1CCCCC1 [B418, 2-cyclohexyl-1,4-dihydroisoquinolin-3(2H)-one] | > 150 | > 150 | > 150 | > 150 |  | 
O=C1c2ccccc2CN1CCC1CCCCC1 [B419, 2-(2-cyclohexylethyl)isoindolin-1-one] | 0.6 (≈ 0.146 µg/mL) | > 150 | 150 (≈ 36.5 µg/mL) | > 150 |  | 
CNCc1cccc(CNCCC2CCCCC2)c1 [B420, 2-cyclohexyl-N-(3-((methylamino)methyl)benzyl)ethan-1-amine] | > 150 | > 150 | > 150 | > 150 |  | 
O=C1Cc2ccccc2CN1CCc1ccccc1 [B421, 2-phenethyl-1,4-dihydroisoquinolin-3(2H)-one] | 55.1 (≈ 13.8 µg/mL) | > 150 | > 150 | > 150 |  | 
O=C1Cc2ccccc2CN1CCC1CCCCCC1 [B422, 2-(2-cycloheptylethyl)-1,4-dihydroisoquinolin-3(2H)-one] | 2.5 (≈ 0.679 µg/mL) | > 150 | 150 (≈ 40.7 µg/mL) | > 150 |  | 
CC(CC1CCCCC1)NCc1cccc2ccn(Cc3ccccc3)c12 (centres unmarked) [B423, N-((1-benzyl-1H-indol-7-yl)methyl)-1-cyclohexylpropan-2-amine] | 150 (≈ 54.1 µg/mL) | > 150 | 55 (≈ 19.8 µg/mL) | > 150 |  | 
CC(CC1CCCCC1)NCc1ccccc1CS(C)(=O)=O (centres unmarked) [B424, 1-cyclohexyl-N-(2-((methylsulfonyl)methyl)benzyl)propan-2-amine] | > 150 | 150 (≈ 48.5 µg/mL) | 3 (≈ 0.971 µg/mL) | 33 (≈ 10.7 µg/mL) |  | 
O=C1CCc2ccccc2CN1CCC1CCCCC1 [B425, 2-(2-cyclohexylethyl)-1,2,4,5-tetrahydro-3H-benzo[c]azepin-3-one] | > 150 | > 150 | 33 (≈ 8.96 µg/mL) | > 150 |  | 
CC(CC1CCCCC1)N1Cc2ccccc2OC1=O (centres unmarked) [B426, 3-(1-cyclohexylpropan-2-yl)-3,4-dihydro-2H-benzo[e][1,3]oxazin-2-one] | 1.7 (≈ 0.465 µg/mL) | > 150 | 55 (≈ 15 µg/mL) | > 150 |  | 
O=C1Cc2ccccc2CN1CCC1CCCC1 [B427, 2-(2-cyclopentylethyl)-1,4-dihydroisoquinolin-3(2H)-one] | 2.7 (≈ 0.657 µg/mL) | > 150 | > 150 | > 150 |  | 
CC(C)C[C@H](N)C(=O)NS(=O)(=O)Cc1ccccc1CNC(C)CC1CCCCC1 (stereo partly drawn) [B428, (2S)-2-amino-N-((2-(((1-cyclohexylpropan-2-yl)amino)methyl)benzyl)sulfonyl)-4-methylpentanamide dihydrochloride] | > 150 | > 150 | 55 | > 150 |  | 
CC(CC1CCCCC1)NCc1ccccc1OCCc1ccccc1F (centres unmarked) [B429, 1-cyclohexyl-N-(2-(2-fluorophenethoxy)benzyl)propan-2-amine] | 20.2 (≈ 7.46 µg/mL) | 33 (≈ 12.2 µg/mL) | 2 (≈ 0.739 µg/mL) | 55 (≈ 20.3 µg/mL) |  | 

SMILES | MIC (H37RvMA; WT H37Rv MTB) [µM] | MIC (A. baumannii; [1]) [µM] | MIC (E. coli; [2]) [µM] | MIC (E. coli; [3]) [µM] | MIC (H37RvMA) [µM] | MIC (A. baumannii; read-out: MIC A. baumannii LB Media) [µM]
O=C1Cc2ccccc2CN1CCC1CCOCC1 [B430, 2-(2-(tetrahydro-2H-pyran-4-yl)ethyl)-1,4-dihydroisoquinolin-3(2H)-one] | 55.1 (≈ 14.3 µg/mL) | > 150 | > 150 | > 150 |  | 
CC(CC1CCCCC1)NCc1ccccc1CS(=O)(=O)NCC(O)CO (centres unmarked) [B431, 1-(2-(((1-cyclohexylpropan-2-yl)amino)methyl)phenyl)-N-(2,3-dihydroxypropyl) methanesulfonamide] | > 150 | > 150 | 4 (≈ 1.59 µg/mL) | 150 (≈ 59.8 µg/mL) |  | 
CC(CC1CCCCC1)NCc1ccccc1CS(=O)(=O)NC1CCN(C)CC1 (centres unmarked) [B432, 1-(2-(((1-cyclohexylpropan-2-yl)amino)methyl)phenyl)-N-(1-methylpiperidin-4-yl)methanesulfonamide] | > 150 | > 150 | 33 (≈ 13.9 µg/mL) | 150 (≈ 63.2 µg/mL) |  | 
CC(CC1CCCCC1)NCc1ccccc1CS(=O)(=O)NCC1CCCO1 (centres unmarked) [B433, 1-(2-(((1-cyclohexylpropan-2-yl)amino)methyl)phenyl)-N-((tetrahydrofuran-2-yl)methyl)methanesulfonamide] | > 150 | 150 (≈ 61.3 µg/mL) | 3 (≈ 1.23 µg/mL) | 150 (≈ 61.3 µg/mL) |  | 
COCCNS(=O)(=O)Cc1ccccc1CNC(C)CC1CCCCC1 (centres unmarked) [B434, 1-(2-(((1-cyclohexylpropan-2-yl)amino)methyl)phenyl)-N-(2-methoxyethyl) methanesulfonamide] | > 150 | 150 (≈ 57.4 µg/mL) | 4 (≈ 1.53 µg/mL) | 150 (≈ 57.4 µg/mL) |  | 
COC(=O)Cn1ccc2cccc(CNC(C)CC3CCCCC3)c21 (centres unmarked) [B435, methyl 2-(7-(((1-cyclohexylpropan-2-yl)amino)methyl)-1H-indol-1-yl)acetate hydrochloride] | > 150 | > 150 | 150 | > 150 |  | 
CC(CC1CCCCC1)NCc1cccc2ccn(CC(=O)O)c12 (centres unmarked) [B436, 2-(7-(((1-cyclohexylpropan-2-yl)amino)methyl)-1H-indol-1-yl)acetic acid hydrochloride] | > 150 | > 150 | 91 | > 150 |  | 
CC(CC1CCCCC1)NCc1ccccc1CS(=O)(=O)N(C)C (centres unmarked) [B437, 1-(2-(((1-cyclohexylpropan-2-yl)amino)methyl)phenyl)-N,N-dimethylmethane sulfonamide] | > 150 | > 150 | 4 (≈ 1.41 µg/mL) | 150 (≈ 52.9 µg/mL) |  | 
CC(CC1CCCCC1)NCc1ccccc1CS(=O)(=O)N(C)C[C@H](O)CO (stereo partly drawn) [B438, 1-(2-(((1-cyclohexylpropan-2-yl)amino)methyl)phenyl)-N-((S)-2,3-dihydroxypropyl)-N-methylmethanesulfonamide] | > 150 | > 150 | 7 (≈ 2.89 µg/mL) | 150 (≈ 61.9 µg/mL) |  | 
CC(CC1CCCCC1)NCc1ccccc1CS(=O)(=O)N1CCN(C)CC1 (centres unmarked) [B439, 1-cyclohexyl-N-(2-(((4-methylpiperazin-1-yl)sulfonyl)methyl)benzyl)propan-2-amine] | > 150 | 150 (≈ 61.1 µg/mL) | 12 (≈ 4.89 µg/mL) | 91 (≈ 37.1 µg/mL) |  | 
COC(=O)Cc1cccc(CNCCC2CCCCC2)c1 [B440, methyl 2-(3-(((2-cyclohexylethyl)amino)methyl)phenyl)acetate] | 150 (≈ 43.4 µg/mL) | > 150 | > 150 | > 150 |  | 
CC(CC1CCCCC1)NCc1cccc2ccn(C)c12 (centres unmarked) [B441, 1-cyclohexyl-N-((1-methyl-1H-indol-7-yl)methyl)propan-2-amine hydrochloride] | 33.4 | > 150 | 91 | > 150 |  | 
CC(CC1CCCCC1)NCc1cccc2ccn(CCO)c12 (centres unmarked) [B442, 2-(7-(((1-cyclohexylpropan-2-yl)amino)methyl)-1H-indol-1-yl)ethan-1-ol hydrochloride] | 150 | > 150 | 150 | > 150 |  | 
CNS(=O)(=O)Cc1ccccc1CNC(C)CC1CCCCC1 (centres unmarked) [B445, 1-(2-(((1-cyclohexylpropan-2-yl)amino)methyl)phenyl)-N-methylmethanesulfonamide] | > 150 | 150 (≈ 50.8 µg/mL) | 4 (≈ 1.35 µg/mL) | 55 (≈ 18.6 µg/mL) |  | 
CCNS(=O)(=O)Cc1ccccc1CNC(C)CC1CCCCC1 (centres unmarked) [B446, 1-(2-(((1-cyclohexylpropan-2-yl)amino)methyl)phenyl)-N-ethylmethanesulfonamide] | > 150 | > 150 | 7 (≈ 2.47 µg/mL) | 91 (≈ 32.1 µg/mL) |  | 
CC(CC1CCCCC1)NCc1ccccc1CS(=O)(=O)NCC(=O)O (centres unmarked) [B448, ((2-(((1-cyclohexylpropan-2-yl)amino)methyl)benzyl)sulfonyl)glycine] | > 150 | > 150 | > 150 | > 150 |  | 
CC(CC1CCCCC1)NCc1ccccc1CS(=O)(=O)NC(=O)NC1CCCCC1 (centres unmarked) [B449, N-(cyclohexylcarbamoyl)-1-(2-(((1-cyclohexylpropan-2-yl)amino)methyl)phenyl) methanesulfonamide] | > 150 | > 150 | 12 (≈ 5.4 µg/mL) | > 150 |  | 
